{
  "source": "patent EP0500953B1",
  "about": "“ANTINEOPLASTIC EFFECT POTENTIATOR AND ANTINEOPLASTIC AGENT” (TAIHO PHARMACEUTICAL COMPANY LIMITED, priority 1990, dated 1992)",
  "key": {"[1]": {"test": "Stool property rating (digestive organ toxicity), COLON 26-bearing mice (Example 1)", "type": "in vivo, male CDF1 mice", "design": "key: -: normal stool (hard pellets with little moisture); ±: loose stool (normal form, moist and soft); +: loose stool (undefinable form, very moist and soft); ++: diarrheal stool (formless, watery)", "settings": "Dosage 20.0 mg/kg, orally once a day for 9 days", "description": "(§1) A 2 mm-diameter fragment of mouse colon cancer line COLON 26 was subdermally transplanted at the back of male CDF1 mice. Beginning 24 hours after transplantation of the tumor fragment, a solution or suspension of tegafur-uracil combination drug, 5-fluorouracil and calcium folinate, the amounts of which are indicated below in Table 1, in 0.5% sodium calboxymethylcellulose (CMC) solution was administered orally once a day for 9 consecutive days. On day 12 after transplantation of the tumor fragment, the tumor was enucleated and weighed. From the ratio of the mean tumor weight in each treatment group to that in the control group, the tumor growth inhibition rate was calculated. On the other hand, the body weight of mice on the day of tumor fragment transplantation was subtracted from the body weight of mice exclusive of tumors on day 12 after transplantation and the difference was used as the index of drug-induced systemic toxicity. Furthermore, the stools passed by mice in each treatment group were examined daily and, in accordance with the method described in Japanese Journal of Cancer Research Vol. 81, 188-195 (1990), the stool property was rated on the following scale: -: normal stool (hard pellets with little moisture), ±: loose stool (normal form, moist and soft), +: loose stool (undefinable form, very moist and soft), ++: diarrheal stool (formless, watery)."}, "[2]": {"test": "Body weight change as index of drug-induced systemic toxicity, COLON 26-bearing mice (Example 1)", "type": "in vivo, male CDF1 mice", "settings": "Dosage 20.0 mg/kg, orally once a day for 9 days, day 12 vs day of transplantation", "description": "as §1"}, "[3]": {"tested_on": "mouse colon cancer line COLON 26", "test": "Tumor growth inhibition, subdermally transplanted COLON 26 tumor fragment in mice (Example 1)", "type": "in vivo", "settings": "Dosage 20.0 mg/kg, orally once a day for 9 consecutive days, tumor weight on day 12", "description": "as §1"}},
  "data": [
    {"smiles": "O=c1[nH]cc(F)c(=O)[nH]1", "note": "[5-Fluorouracil, 5-fluorouracil]", "values": [
      {"measurement": "Stool property", "setting": "[1]; Folinic acid 0 mg/kg", "value": "±"},
      {"measurement": "Stool property", "setting": "[1]; Folinic acid 100 mg/kg", "value": "++"},
      {"measurement": "Change in body weight (g)", "setting": "[2]; Folinic acid 0 mg/kg", "value": "+1.7 g"},
      {"measurement": "Change in body weight (g)", "setting": "[2]; Folinic acid 100 mg/kg", "value": "+0.1 g"},
      {"measurement": "Tumor Growth inhibition rate (%)", "setting": "[3]; Folinic acid 0 mg/kg", "value": 43, "unit": "%"},
      {"measurement": "Tumor Growth inhibition rate (%)", "setting": "[3]; Folinic acid 100 mg/kg", "value": 56, "unit": "%"}
    ]}
  ]
}
